Source: EPA's ToxRefDB 2

How the values were obtained:
rat [1] = details: Subchronic oral toxicity in rodents, sprague dawley, Gavage/Intubation, dose end: 90 day, group: systemic
rabbit [2] = details: Sub-acute dermal toxicity, new zealand white, Topical, dose end: 3 week, group: systemic, systemic / pathology gross / lymph node / enlarged + systemic / pathology gross / skin / lesion(s) (nos) + systemic / pathology microscopic…
mouse [3] = details: Subchronic oral toxicity in rodents, b6c3f1, Gavage/Intubation, dose end: 13 week, group: systemic
rat [4] = details: Subchronic oral toxicity in rodents, fischer, Gavage/Intubation, dose end: 13 week, group: systemic
rat [5] = details: Combined chronic toxicity/carcinogenicity, fischer, Oral, Gavage/Intubation, dose end: 2 year, group: systemic
mouse [6] = details: Combined chronic toxicity/carcinogenicity; b6c3f1; Oral; Gavage/Intubation; dose end: 2 year; group: systemic; systemic / pathology microscopic / liver / cytomegaly + systemic / pathology microscopic / liver / hyperplasia + systemic / pathology …
rat [7] = details: Prenatal developmental toxicity study, other, Oral, Feed, dose end: 15 GD
rat [8] = details: Multigenerational reproductive toxicity study, other, Oral, Feed, dose end: 2 generation
rat [9] = details: Multigenerational reproductive toxicity study, sprague dawley, Oral, Feed, dose end: 3 generation
rabbit [10] = details: Prenatal developmental toxicity study, new zealand white, Oral, Gavage/Intubation, dose end: 19 GD
rat [11] = details: Combined chronic toxicity/carcinogenicity; sprague dawley; Oral; Feed; dose end: 2 year; group: systemic; systemic / in life observation / body weight / body weight + systemic / in life observation / body weight / body weight gain + systemic / …
dog = details: Chronic toxicity, beagle, Oral, Feed, dose end: 12 month, group: systemic
mouse [12] = details: Carcinogenicity; cd1; Oral; Feed; dose end: 24 month; group: systemic; systemic / hematology / methemoglobin / methemoglobin + systemic / in life observation / body weight / body weight + systemic / in life …
[13] = systemic / clinical chemistry / [other] / [other] + systemic / clinical chemistry / chloride / chloride + systemic / clinical chemistry / …
[14] = systemic / pathology gross / thymus / discolored
[15] = systemic / in life observation / body weight / body weight gain + systemic / in life observation / clinical signs / prostration + systemic…
[16] = systemic / in life observation / body weight / body weight gain + systemic / organ weight / liver / absolute + systemic / organ weight / …
[17] = systemic / in life observation / body weight / body weight + systemic / in life observation / clinical signs / labored respiration + …
[18] = systemic / in life observation / body weight / body weight + systemic / organ weight / kidney / absolute + systemic / organ weight / kidney…
[19] = systemic / pathology microscopic / kidney / pigmentation + systemic / pathology microscopic / nose / pigmentation
[20] = group: developmental, developmental / developmental malformation / bone / bipartite ossification + developmental / developmental malformation / bone / delayed …
[21] = group: maternal, systemic / in life observation / body weight / body weight + systemic / in life observation / food consumption / food consumption + …
[22] = group: offspring, systemic / in life observation / body weight / offspring (pup) weight + developmental / developmental malformation / diaphragm / hernia + …
[23] = group: parental, systemic / in life observation / body weight / body weight gain + systemic / in life observation / body weight / body weight + systemic / in…
[24] = group: reproductive, reproductive / offspring survival early / birth index / live birth index
[25] = group: offspring, developmental / offspring survival late / viability index / viability index + systemic / in life observation / body weight / offspring (pup…
[26] = group: parental, systemic / in life observation / body weight / body weight + systemic / in life observation / body weight / body weight gain
[27] = group: reproductive, reproductive / reproductive performance / fertility / fertility
[28] = group: developmental, developmental / developmental malformation / bone / [other] + developmental / developmental malformation / bone / hole(s) + developmental / …
[29] = group: maternal, systemic / in life observation / body weight / body weight gain
[30] = group: maternal, systemic / in life observation / body weight / body weight gain + reproductive / reproductive performance / aborted / aborted + systemic / …
[31] = systemic / hematology / methemoglobin / methemoglobin + systemic / hematology / sulphemoglobin / sulphemoglobin
[32] = systemic / hematology / methemoglobin / methemoglobin + systemic / hematology / sulphemoglobin / sulphemoglobin + systemic / clinical …

## Cc1ccc(O)c(C)c1 [2,4-Dimethylphenol]
Rat [1]; [13]
  LOAEL: > 540 mg/kg/day
  NOAEL: ≥ 540 mg/kg/day
Rat [1]; [14]
  LEL: 60 mg/kg/day
  NEL: < 60 mg/kg/day
Rabbit [2]
  LEL: 1200 mg/kg/day
  LOAEL: > 2400 mg/kg/day
  NEL: < 1200 mg/kg/day
  NOAEL: ≥ 2400 mg/kg/day

## COc1c(Cl)c(Cl)c(Cl)c(Cl)c1Cl [Pentachloroanisole]
Mouse [3]; [15]
  LOAEL: > 180 mg/kg/day
  NOAEL: ≥ 180 mg/kg/day
Mouse [3]; [16]
  LEL: 40 mg/kg/day
  NEL: < 40 mg/kg/day
Rat [4]; [17]
  LOAEL: > 180 mg/kg/day
  NOAEL: ≥ 180 mg/kg/day
Rat [4]; [18]
  LEL: 40 mg/kg/day
  NEL: < 40 mg/kg/day
Rat [5]; systemic / in life observation / body weight / body weight + systemic / pathology microscopic / adrenal gland / hyperplasia
  LOAEL: 40 mg/kg/day
Rat [5]; systemic / in life observation / body weight / body weight + systemic / pathology microscopic / adrenal gland / hyperplasia + systemic / …
  NOAEL: 20 mg/kg/day
Rat [5]; [19]
  LEL: 10 mg/kg/day
  NEL: < 10 mg/kg/day
Mouse [6]
  LEL: 20 mg/kg/day
  LOAEL: 20 mg/kg/day
  NEL: < 20 mg/kg/day
  NOAEL: < 20 mg/kg/day

## CON(C)C(=O)Nc1ccc(Cl)c(Cl)c1 [Linuron]
Rat [7]; [20]
  LEL: 50 mg/kg/day
  LOAEL: 50 mg/kg/day
  NEL: 12 mg/kg/day
  NOAEL: 12 mg/kg/day
Rat [7]; group: maternal, systemic / in life observation / body weight / body weight + systemic / in life observation / food consumption / food consumption
  LOAEL: 50 mg/kg/day
Rat [7]; [21]
  LEL: 50 mg/kg/day
  NEL: 12 mg/kg/day
  NOAEL: 12 mg/kg/day
Rat [8]; group: offspring, systemic / in life observation / body weight / offspring (pup) weight
  LEL: 7.77 mg/kg/day
Rat [8]; [22]
  LOAEL: > 54 mg/kg/day
  NEL: 0.948 mg/kg/day
  NOAEL: ≥ 54 mg/kg/day
Rat [8]; group: parental, systemic / in life observation / body weight / body weight gain
  LOAEL: 5.83 mg/kg/day
Rat [8]; [23]
  NEL: 0.736 mg/kg/day
  NOAEL: 0.736 mg/kg/day
Rat [8]; group: parental, systemic / in life observation / body weight / body weight gain + systemic / in life observation / food consumption / food consumption
  LEL: 5.83 mg/kg/day
Rat [8]; [24]
  LEL: 54 mg/kg/day
  LOAEL: > 54 mg/kg/day
  NEL: 7.77 mg/kg/day
  NOAEL: ≥ 54 mg/kg/day
Rat [9]; [25]
  LEL: 44 mg/kg/day
  LOAEL: 44 mg/kg/day
  NEL: 9 mg/kg/day
  NOAEL: 9 mg/kg/day
Rat [9]; group: parental, systemic / in life observation / body weight / body weight
  LEL: 9 mg/kg/day
Rat [9]; group: parental, systemic / in life observation / body weight / body weight + systemic / hematology / erythrocyte (rbc) count differential / erythrocyte (rbc…
  LOAEL: 10 mg/kg/day
Rat [9]; [26]
  NEL: 2 mg/kg/day
  NOAEL: 2 mg/kg/day
Rat [9]; [27]
  LEL: 44 mg/kg/day
  LOAEL: 44 mg/kg/day
  NEL: 9 mg/kg/day
  NOAEL: 9 mg/kg/day
Rabbit [10]; [28]
  LEL: 100 mg/kg/day
  LOAEL: 100 mg/kg/day
  NEL: 25 mg/kg/day
  NOAEL: 25 mg/kg/day
Rabbit [10]; [29]
  LEL: 25 mg/kg/day
  LOAEL: 25 mg/kg/day
Rabbit [10]; [30]
  NEL: 5 mg/kg/day
  NOAEL: 5 mg/kg/day
Rat [11]
  LEL: 5.11 mg/kg/day
  LOAEL: 5.11 mg/kg/day
  NEL: 2.09 mg/kg/day
  NOAEL: 2.09 mg/kg/day
dog; [31]
  LEL: 3.49 mg/kg/day
  LOAEL: 3.49 mg/kg/day
dog; [32]
  NEL: 0.77 mg/kg/day
  NOAEL: 0.77 mg/kg/day
Mouse [12]
  LEL: 261 mg/kg/day
  LOAEL: 261 mg/kg/day
  NEL: 23 mg/kg/day
  NOAEL: 23 mg/kg/day
